Test results: patent publication US5403934A, “Heterocyclic compounds” (Burroughs Wellcome Co., priority 1990, dated 1995)

Tests used:
Plasmodium falciparum = assay: In vitro activity vs. Plasmodium falciparum (modified semi-automated microdilution technique of Desjardins et al, [3H]-hypoxanthine); assay type: cell-based; conditions: Erythrocyte, human erythrocytes, RPMI 1640 + 10% human plasma, 37° C, number of tests in parentheses in own column
Method: 1. In vitro Activity vs. Plasmodium falciparum The in vitro activity of the test compounds was determined using a modification of the semi-automated microdilution technique of Desjardins et al (1979). Initial dilutions were prepared from 1/100th molecular weight (in mg) of the compounds dissolved in dry ethanol, with the first 1:100 dilution being in ethanol and subsequent dilutions in RPMI 1640 medium supplemented with 10% v/v human plasma. Serial 1:2 drug dilutions were prepared in microtitration trays using microdiluters, each dilution being set up in triplicate. To this was added RPMI 1640 medium supplemented with 10% v/v human plasma, fresh and infected type A Rhesus positive human erythrocytes to yield a haematocrit of 3% and a parasitaemia of 0.25-0.5%. [^3 H]-hypoxanthine was added to give a final concentration of 12.5-16 μCi/ml of culture. The plates were sealed and incubated in a modular incubator in a gas mixture of 5% O2; 3% CO2 and 92% N2 by volume at 37° C. The test was completed as described by Desjardins et at (1979). Data were analysed to yield IC50 values by best fit to a sigmoidal dose-response curve.

P. yoelii = assay: Mouse 4-day suppressive test vs P. yoelii; assay type: in vivo; conditions: Plasmodium yoelii, P. yoelii YM strain, 7 oral doses in 4 days, CD1 mice, parasitaemia day 5
Method: 2. In vivo Activity vs. P.yoelii in the Mouse
In vivo activity was determined using the modified 4-day suppressive test involving an infection of the YM strain of P.yoelii by 3×10^6 parasitized erythrocytes/ml and 7 oral doses given in 4 days in CD1 mice. Drugs were formulated by ball milling overnight in 0.25% celacol with stainless steel balls to form a fine particle suspension. The total requirement was formulated at the beginning of a test and thereafter stored at 4° C. On the morning of day 5 smears of tail blood were prepared from each mouse, the parasitaemias counted and the inhibition as compared to control animals calculated. Data were analysed to yield ED50 values by the best fit to a sigmoidal dose response curve, and the results are presented in Table 2 below.

| SMILES | IC50 (Plasmodium falciparum) [nM] | ED50 (P. yoelii) [mg/kg] |
| --- | --- | --- |
| Cc1cc(=O)c(-c2ccc(Oc3ccc(C(F)(F)F)cc3)cc2)c(C)[nH]1 [Example 4, 3-(4-(4-Trifluoromethylphenoxy)phenyl)-2,6-dimethylpyridin-4(1H)-one] | 1100 | 1.25 |
| Cc1[nH]c(C)c(-c2ccc(Oc3ccc(Cl)cc3)cc2)c(=O)c1Cl [Example 3, 3-Chloro-5-(4-(4-chlorophenoxy)phenyl)-2,6-dimethylpyridin-4(1H)-one] | 1400 | 1.6 |
| Cc1[nH]c(C)c(-c2ccc(Oc3ccc([S+](C)[O-])cc3)cc2)c(=O)c1Br (stereo not drawn) [Example 16, 3-Bromo-2,6-dimethyl-5-(4-(4-methylsulphinylphenoxy)phenyl)pyridin-4(1H)-one] | 1600 |  |
| Cc1[nH]c(C)c(-c2ccc(-c3ccc(Cl)cc3)cc2)c(=O)c1Cl [Example 8, 3-Chloro-5-(4'-chloro-4-biphenylyl)-2,6-dimethylpyridin-4(1H)-one] | 500 | 0.6 |
| Cc1[nH]c(C)c(-c2ccc(Oc3ccc(OC(F)(F)F)cc3)cc2)c(=O)c1Br [Example 14, 3-Bromo-5-(4-(4-trifluoromethoxyphenoxy)phenyl)-2,6-dimethylpyridin-4(1H)-one] | 23 | 0.34 |
| Cc1[nH]c(C)c(-c2ccc(-c3ccc(Cl)cc3)cc2)c(=O)c1Br [Example 7, 3-Bromo-5-(4'-chloro-4-biphenylyl)-2,6-dimethylpyridin-4(1H)-one] | 2000 | 1.4 |
| Cc1[nH]c(C)c(-c2ccc(Oc3ccc(OC(F)(F)F)cc3)cc2)c(=O)c1Cl [Example 15, 3-Chloro-5-(4-(4-trifluoromethoxyphenoxy)phenyl)-2,6-dimethylpyridin-4(1H)-one] | 20 | 0.19 |
| Cc1[nH]c(C)c(-c2ccc(Oc3ccc(Cl)cc3)cc2)c(=O)c1Br [Example 2, 3-Bromo-5-[4-(4-chlorophenoxy)phenyl]-2,6-dimethylpyridin-4(1H)-one] | 200 | 0.7 |
| Cc1cc(=O)c(-c2ccc(Oc3ccc(Cl)cc3)cc2)c(C)[nH]1 [Example 1, 3-(4-(4-Chlorophenoxy)phenyl)-2,6-dimethylpyridin-4(1H)-one] | 2500 | 2.5 |
| CCCCCCCCc1c(C)[nH]c(C)c(C#N)c1=O [Example 10, 5-Cyano-2,6-dimethyl-3-octylpyridin-4(1H)-one] | 2300 |  |
| Cc1c(Br)c(=O)c(-c2ccc(Cl)cc2)c(C)n1C [Example 12, 3-Bromo-5-(4-Chlorophenyl)-1,2,6-trimethylpyridin-4-one] | 23500 | 16.4 |
| Cc1cc(=O)c(-c2ccc(-c3ccc(Cl)cc3)cc2)c(C)[nH]1 [Example 6, 3-(4'-Chloro-4-biphenylyl)-2,6-dimethylpyridin-4(1H)-one] | 8400 | 1.6 |
| Cc1[nH]c(C)c(-c2ccc(Oc3ccc(C(F)(F)F)cc3)cc2)c(=O)c1Br [Example 5, 3-Bromo-5-(4-(4-trifluoromethylphenoxy)phenyl)-2,6-dimethylpyridin-4(1H)-one] | 220 | 0.26 |
